According to PubChem BioAssay AID1963986 (Molecular Pharmacology Branch, DTP, NCI, 2024):

Test system: 171881-019-R-J1-PDC tumor spheroid viability
Assay: Anticancer human tumor 171881-019-R-J1-PDC patient-derived invasive breast carcinoma cell line growth inhibition [PI3K]
Conditions: spheroids with HUVEC and MSC; for viability, T/C: stronger effect = lower value
Procedure, shortened: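 Stroma-containing spheroids: tumor line, pooled-donor HUVEC, hMSC. Treatments: targeted agents with PI3K inhibitors. Dosing: clinically relevant, half-log spacing, 10 microM ceiling without known Cmax. Read-out: cell viability.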

[1] = curve of first compound, second compound 0.0316 µM
[2] = curve of first compound, second compound 0.1 µM
[3] = curve of first compound, second compound 0.316 µM
[4] = curve of first compound, second compound 1 µM
[5] = curve of first compound, second compound 3.16 µM
[6] = curve of first compound, second compound 10 µM
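Also: spheroids exposed to compound for 7 days before viability read.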
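For viability, T/C in this document: 100% = DMSO vehicle-treated spheroids.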

Compound: CC(C)n1nc(-c2ccc3oc(N)nc3c2)c2c(N)ncnc21 + Cc1nc(NC(=O)N2CCCC2C(N)=O)sc1-c1ccnc(C(C)(C)C(F)(F)F)c1
- IC50 [1]: 6.6 nM
- IC50 [2]: 4.2 nM
- IC50 [3]: 0.378 nM
- IC50 [4]: < 0.316 nM
- IC50 [5]: < 0.316 nM
- IC50 [6]: < 0.316 nM
- viability, T/C (second compound 0.0316 µM, first compound 0.000316 µM): 93.8%
- viability, T/C (second compound 0.0316 µM, first compound 0.001 µM): 78%
- viability, T/C (second compound 0.0316 µM, first compound 0.00316 µM): 63.1%
- viability, T/C (second compound 0.0316 µM, first compound 0.01 µM): 46.8%
- viability, T/C (second compound 0.0316 µM, first compound 0.0316 µM): 16.1%
- viability, T/C (second compound 0.0316 µM, first compound 0.1 µM): 3.37%
- viability, T/C (second compound 0.1 µM, first compound 0.000316 µM): 79.6%
- viability, T/C (second compound 0.1 µM, first compound 0.001 µM): 74.2%
- viability, T/C (second compound 0.1 µM, first compound 0.00316 µM): 52.7%
- viability, T/C (second compound 0.1 µM, first compound 0.01 µM): 35.6%
- viability, T/C (second compound 0.1 µM, first compound 0.0316 µM): 13.1%
- viability, T/C (second compound 0.1 µM, first compound 0.1 µM): 4.36%
- viability, T/C (second compound 0.316 µM, first compound 0.000316 µM): 52%
- viability, T/C (second compound 0.316 µM, first compound 0.001 µM): 44%
- viability, T/C (second compound 0.316 µM, first compound 0.00316 µM): 38%
- viability, T/C (second compound 0.316 µM, first compound 0.01 µM): 22.4%
- viability, T/C (second compound 0.316 µM, first compound 0.0316 µM): 8.1%
- viability, T/C (second compound 0.316 µM, first compound 0.1 µM): 2.79%
- viability, T/C (second compound 1 µM, first compound 0.000316 µM): 31.4%
- viability, T/C (second compound 1 µM, first compound 0.001 µM): 26.7%
- viability, T/C (second compound 1 µM, first compound 0.00316 µM): 18.5%
- viability, T/C (second compound 1 µM, first compound 0.01 µM): 10.9%
- viability, T/C (second compound 1 µM, first compound 0.0316 µM): 4.74%
- viability, T/C (second compound 1 µM, first compound 0.1 µM): 2.58%
- viability, T/C (second compound 3.16 µM, first compound 0.000316 µM): 11.9%
- viability, T/C (second compound 3.16 µM, first compound 0.001 µM): 11.9%
- viability, T/C (second compound 3.16 µM, first compound 0.00316 µM): 8.19%
- viability, T/C (second compound 3.16 µM, first compound 0.01 µM): 5.31%
- viability, T/C (second compound 3.16 µM, first compound 0.0316 µM): 3.23%
- viability, T/C (second compound 3.16 µM, first compound 0.1 µM): 2.15%
- viability, T/C (second compound 10 µM, first compound 0.000316 µM): 3.18%
- viability, T/C (second compound 10 µM, first compound 0.001 µM): 3.44%
- viability, T/C (second compound 10 µM, first compound 0.00316 µM): 2.64%
- viability, T/C (second compound 10 µM, first compound 0.01 µM): 2.7%
- viability, T/C (second compound 10 µM, first compound 0.0316 µM): 2.05%
- viability, T/C (second compound 10 µM, first compound 0.1 µM): 1.46%

Compound: C=CC(=O)N1CCN(c2nc(=O)n(-c3c(C)ccnc3C(C)C)c3nc(-c4c(O)cccc4F)c(F)cc23)C(C)C1 (stereo unspecified)
- viability, T/C (compound 0.0316 µM): 95.3% [middle of 4 runs]
- viability, T/C (compound 0.1 µM): 84.4% [middle of 4 runs]
- viability, T/C (compound 0.316 µM): 92.5% [middle of 4 runs]
- viability, T/C (compound 1 µM): 94.6% [middle of 4 runs]
- viability, T/C (compound 3.16 µM): 91.7% [middle of 4 runs]
- viability, T/C (compound 10 µM): 56.1% [middle of 4 runs]
- IC50 (curve of compound): > 10000 nM

Compound: Cn1cnc2c(F)c(Nc3ccc(Br)cc3Cl)c(C(=O)NOCCO)cc21 + Cc1nc(NC(=O)N2CCCC2C(N)=O)sc1-c1ccnc(C(C)(C)C(F)(F)F)c1
- IC50 [1]: 437 nM
- IC50 [2]: 105 nM
- IC50 [3]: < 9.49 nM
- IC50 [4]: < 9.49 nM
- IC50 [5]: < 9.49 nM
- IC50 [6]: < 9.49 nM
- viability, T/C (second compound 0.0316 µM, first compound 0.00949 µM): 92.1%
- viability, T/C (second compound 0.0316 µM, first compound 0.03 µM): 78.9%
- viability, T/C (second compound 0.0316 µM, first compound 0.0949 µM): 71.5%
- viability, T/C (second compound 0.0316 µM, first compound 0.3 µM): 58.5%
- viability, T/C (second compound 0.0316 µM, first compound 0.949 µM): 35.9%
- viability, T/C (second compound 0.0316 µM, first compound 3 µM): 16%
- viability, T/C (second compound 0.1 µM, first compound 0.00949 µM): 73.9%
- viability, T/C (second compound 0.1 µM, first compound 0.03 µM): 59%
- viability, T/C (second compound 0.1 µM, first compound 0.0949 µM): 50.3%
- viability, T/C (second compound 0.1 µM, first compound 0.3 µM): 41.8%
- viability, T/C (second compound 0.1 µM, first compound 0.949 µM): 26.8%
- viability, T/C (second compound 0.1 µM, first compound 3 µM): 12.4%
- viability, T/C (second compound 0.316 µM, first compound 0.00949 µM): 45.7%
- viability, T/C (second compound 0.316 µM, first compound 0.03 µM): 38.8%
- viability, T/C (second compound 0.316 µM, first compound 0.0949 µM): 33.3%
- viability, T/C (second compound 0.316 µM, first compound 0.3 µM): 28.6%
- viability, T/C (second compound 0.316 µM, first compound 0.949 µM): 15.1%
- viability, T/C (second compound 0.316 µM, first compound 3 µM): 5.7%
- viability, T/C (second compound 1 µM, first compound 0.00949 µM): 28.8%
- viability, T/C (second compound 1 µM, first compound 0.03 µM): 23.3%
- viability, T/C (second compound 1 µM, first compound 0.0949 µM): 19.9%
- viability, T/C (second compound 1 µM, first compound 0.3 µM): 15.1%
- viability, T/C (second compound 1 µM, first compound 0.949 µM): 6.73%
- viability, T/C (second compound 1 µM, first compound 3 µM): 2.34%
- viability, T/C (second compound 3.16 µM, first compound 0.00949 µM): 11.5%
- viability, T/C (second compound 3.16 µM, first compound 0.03 µM): 9.26%
- viability, T/C (second compound 3.16 µM, first compound 0.0949 µM): 7.86%
- viability, T/C (second compound 3.16 µM, first compound 0.3 µM): 5.01%
- viability, T/C (second compound 3.16 µM, first compound 0.949 µM): 1.92%
- viability, T/C (second compound 3.16 µM, first compound 3 µM): 0.87%
- viability, T/C (second compound 10 µM, first compound 0.00949 µM): 2.26%
- viability, T/C (second compound 10 µM, first compound 0.03 µM): 2.27%
- viability, T/C (second compound 10 µM, first compound 0.0949 µM): 1.71%
- viability, T/C (second compound 10 µM, first compound 0.3 µM): 0.92%
- viability, T/C (second compound 10 µM, first compound 0.949 µM): 0.78%
- viability, T/C (second compound 10 µM, first compound 3 µM): 0.48%
